Key:
[1] = biological target: T1, Recombinant human LTC4 synthase (Homo sapiens, UniProt Q16873); experiment: In vitro assay Method A: LTC4 synthase, LTA4 methyl ester to LTC4 methyl ester, HPLC; assay type: biochemical; settings: total concentration of title compound 10 μM, read-out: % inh. of LTC4 synthase
T1 construct: made in house; host or cells: Pichia pastoris ('Piccia pastoralis' [sic])
T1 sequence (Q16873 1-150): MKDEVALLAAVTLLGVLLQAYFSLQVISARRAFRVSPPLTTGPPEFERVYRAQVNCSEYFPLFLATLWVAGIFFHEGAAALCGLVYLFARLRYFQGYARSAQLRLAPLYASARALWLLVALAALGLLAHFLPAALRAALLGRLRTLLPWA
Method: In the assay, LTC4 synthase catalyses the reaction where the substrate LTA4 methyl ester is converted to the corresponding LTC4 methyl ester. Recombinant human LTC4 synthase is expressed in Piccia pastoralis and the purified enzyme is dissolved in 25 mM Tris-buffer pH 7.8 and stored at −20° C. The assay is performed in phosphate buffered saline (PBS) pH 7.4, supplemented with 5 mM glutathione (GSH). The reaction is terminated by addition of MeCN/MeOH/acetic acid (50/50/1). The assay is performed at rt in 96-well plates. Analysis of the formed LTC4 methyl ester is performed with reversed phase HPLC (Waters 2795 utilizing an Onyx Monolithic C18 column). The mobile phase consists of MeCN/MeOH/H2O (32.5/30/37.5) with 1% acetic acid, pH adjusted with NH3 to 5.6, and absorbance measured at 280 nm with a Waters 2487 UV-detector.
(§1) The following is added chronologically to each well: • 1. 50 μL assay buffer, PBS with 5 mM GSH. • 2. 0.5 μL inhibitor in DMSO. • 3. 2 μL LTC4 synthase in PBS. The total protein concentration in this solution is 0.025 mg/mL. Incubation of the plate at rt for 10 min. • 4. 1-1.5 μL LTA4 methyl ester (final conc. 10 μM). Incubation of the plate at rt for 1 min. • 5. 50 μL stop solution. 80 μL of the incubation mixture is analysed with HPLC.

[2] = tested on: cysteinyl leukotrienes concentration in the peritoneal lavage; experiment: Mouse peritoneal inflammation model (zymosan ip), cysteinyl leukotrienes in peritoneal lavage by EIA; assay type: in vivo, Male BALB/c mice; settings: 0.5 h, 5 min before zymosan, lavage 30 min after zymosan, read-out: %-inhibition of cysteinyl leukotrienes concentration vs vehicle treated mice; for inhibition in vivo at 10 mg/kg: 10 mg/kg ip; for inhibition in vivo at 3 mg/kg: 3 mg/kg ip
Method: The in vivo efficacy of leukotriene biosynthesis inhibitors was assed by using a model of peritoneal inflammation. Male BALB/c mice (weighing 20-25 grams) received an intraperitoneal injection (ip) of 0.5 ml zymosan dissolved in phosphate buffer saline (PBS) (pH 7.5, 1 mg/mL). 5 Minutes before the zymosan injection compounds (1-10 mg/kg) or vehicle were administered ip (10 mL/kg). 30 min after the zymosan injection the mice were anaesthetized and the peritoneal cavity was flushed with 4 mL PBS. The peritoneal lavage was centrifuged at 6000 rcf for 5 minutes and the cysteinyl leukotrienes concentration in the supernatant was determined by EIA. The cysteinyl leukotrienes concentration in the peritoneal lavage from compound treated mice was compared to vehicle treated mice and the % inhibition was calculated.

[3] = biological target: T1, Recombinant human LTC4 synthase; experiment: In vitro assay Method B: LTC4 synthase, LTA4 to LTC4, HTRF detection; assay type: biochemical; settings: total concentration of title compound 10 μM, read-out: % inh. of LTC4 synthase
Method: In the assay, LTC4 synthase catalyses the reaction where the substrate LTA4 is converted to LTC4. Recombinant human LTC4 synthase is expressed in Piccia pastoralis and the purified enzyme is dissolved in 25 mM Tris-buffer pH 7.8 and stored at −20° C. The assay is performed in phosphate buffered saline (PBS) pH 7.4, supplemented with 5 mM glutathione (GSH). The assay is performed at rt in 384-well plates. Analysis of the formed LTC4 is performed using costume made homogenous time-resolved fluorescence (HTRF) detection (Cisbio).
as §1, with “2 μl” for “2 μL”, “0.025 mg/ml.” for “0.025 mg/mL.”, “LTA4” for “LTA4 methyl ester”, “conc. 2.5” for “conc. 10”, “min. 10” for “min. • 5. 50 μL stop solution. 80”, “analysed using HTRF detection.” for “analysed with HPLC.”

Structure (SMILES)	inhibition at 10 µM [1] [%]	inhibition in vivo at 10 mg/kg [2] [%]	inhibition at 10 µM [3] [%]	inhibition in vivo at 3 mg/kg [2] [%]
CC(C)Oc1ccc(Oc2ccc3c(c2)c(C(=O)O)c(CC(=O)O)n3-c2ccc(OCc3ccc4ccccc4n3)cc2)cc1 [1:10, 2-Carboxymethyl-1-5-(4-isopropoxyphenoxy)-[4-(2-quinolinylmethoxy)-phenyl]indole-3-carboxylic acid]	98			
O=C(O)Cc1c(C(=O)O)c2cc(Oc3ccc(OC(F)(F)F)cc3)ccc2n1-c1ccc(OCc2ccccc2)cc1 [Example 2:1, 1-(4-Benzyloxyphenyl)-2-carboxymethyl-5-(4-trifluoromethoxyphenoxy)indole-3-carboxylic acid]	89			
CC(C)Oc1ccc(Oc2ccc3c(c2)c(C(=O)O)c(CC(=O)O)n3-c2ccc(Oc3ccc(Cl)cc3)cc2)cc1 [Example 3:3, 2-Carboxymethyl-1-[4-(4-chlorophenoxy)phenyl]-5-(4-isopropoxy-phenoxy)indole-3-carboxylic acid]		100	96	
CC(C)Oc1ccc(Oc2ccc3c(c2)c(C(=O)O)c(CC(=O)O)n3-c2ccc(OC3CCCC3)cc2)cc1 [Example 4:1, 2-Carboxymethyl-1-(4-cyclopentyloxyphenyl)-5-(4-isopropoxyphenoxy)-indole-3-carboxylic acid]		96	98	
O=C(O)Cc1c(C(=O)O)c2cc(Oc3ccc(OC(F)(F)F)cc3)ccc2n1-c1ccc(OC2CCCCC2)cc1 [Example 4:5, 2-Carboxymethyl-1-(4-cyclohexyloxyphenyl)-5-(4-trifluoromethoxyphenoxy)indole-3-carboxylic acid]			99	97
CCCCCCCCOc1ccc(-n2c(CC(=O)O)c(C(=O)O)c3cc(Oc4ccc(OC(C)C)cc4)ccc32)cc1 [Example 5:2, 2-Carboxymethyl-1-(4-octyloxyphenyl)-5-(4-isopropoxyphenoxy)indole-3-carboxylic acid]			97	94

From US20120029016A1, “Indoles Useful in the Treatment of Inflammation” (BIOLIPOX AB, priority 2008, published 2012)
